Experimental data from patent US8273404B2, “Extraction of solvents from drug containing polymer reservoirs” (Cordis Corporation, priority 2008, dated 2012).

Tests used:
[1] = format: physicochemical; details: 0.02 weight percent BHT per total basecoat solids
Text: Referring to FIG. 113, there is illustrated in graphical format, the results of the same drug screening as described above with the solution applied to a cobalt-chromium, 18 mm stent. In this test, two sets of solution samples were utilized, one with sirolimus and polymer solution containing the antioxidant and one with sirolimus and polymer solution containing no antioxidant. The antioxidant utilized was 0.02 weight percent BHT per total basecoat solids. The test was utilized to determine the percent drug content change over a time period of 0 to 12 weeks under two conditions; namely, 40° C. with 75 percent relative humidity, and ambient conditions (25° C.).

[2] = test system: coronary arteries after balloon angioplasty; assay: IVUS substudy of the MVP restenosis trial (lumen, wall, EEM areas after balloon angioplasty); format: in vivo, human
Method: The present invention concerns the IVUS substudy from the MVP restenosis trial. MVP was a double-blind placebo-controlled randomized clinical trial with four study groups. The protocol was approved by the Montreal Heart Institute institutional review board. The MVP study design, inclusion and exclusion criteria have been previously described (N Engl J Med 1997; 365-372). Briefly, patients referred for elective coronary angioplasty were evaluated at least 30 days prior to their scheduled procedure. Eligible patients were asked to provide written informed consent. Patients were eligible if they were scheduled to undergo standard balloon angioplasty on at least one native coronary artery and had at least one de novo target lesion with luminal narrowing of fifty percent or more by caliper measurements.
Beginning thirty days prior to scheduled angioplasty, patients were randomly assigned to receive either probucol alone, multivitamins alone, the combination of probucol and multivitamins, or placebo. Probucol 500 mg or matched placebo was administered twice daily. The multivitamin complex, consisting of vitamin E 700 IU, vitamin C 500 mg and beta-carotene 30,000 IU, or matched placebo was also administered in one tablet twice daily. All patients received an extra dose of probucol 1000 mg and/or vitamin E 2000 IU and/or matched placebos twelve hours before angioplasty, according to randomization assignment. […] All patients received aspirin 325 mg daily started at least thirty days before procedure and continued for the study period. Balloon angioplasty was performed according to standard techniques. Intracoronary nitroglycerin (0.3 mg) was given for each target artery for both pre- and post-dilatation angiography and at follow-up. The sequence of contrast injections with the exact degree of angulation was recorded and used for every angiogram. Coronary arteriograms (pre-, post-procedure, and final follow-up) were analyzed together using the Coronary Measurement System (CMS), as previously reported. Patient follow-up included clinical evaluation, exercise treadmill testing, blood chemistry, pill count and drug level measurements, and dietary assessment and intervention. Patients were readmitted for follow-up coronary angiography at five to seven months. […]
IVUS examinations were performed using 30 MHZ, 3.5 French mechanical (1800 rpm) ultrasound catheters (Boston Scientific, Natick, Mass.) and a dedicated imaging console (Hewlett Packard, Andover, Mass.) (Curr Opin Cardiol 1994; 9:627-633). […] IVUS imaging was monitored by an experienced cardiologist, but the angioplasty operator was blinded to ultrasound results to avoid altering standard balloon angioplasty practice. […] One angiographic view was recorded on videotape before beginning pullback of the IVUS catheter. […]

[3] = test system: LDL; assay: Ex vivo LDL peroxidation (diene conjugates after addition of copper ions) of MVP patients; set-up: species or system human; details: treatment for one month, preliminary results
Text: Dietary intervention and smoking habits were similar in all groups. Probucol may simply be a more powerful antioxidant than the combination of vitamins. To this regard, preliminary results from the continuous spectrophotometric monitoring of diene conjugates in LDL after the addition of copper ions to the isolated lipoprotein ex vivo (Free Radic Res Commun 1989; 6:67-75) of MVP patients are noteworthy.

[4] = test system: coronary restenosis after angioplasty; assay: MultiVitamins and Probucol (MVP) randomized clinical trial, angiographic and clinical endpoints; format: in vivo, human
Text: It was not possible to determine with angiography alone whether probucol acted via inhibition of tissue hyperplasia or improvement in vascular remodeling. […] In addition, the invention enables the skilled practitioner to use probucol in conjunction with other percutaneous coronary interventions such as stenting if it is deemed appropriate.
Beginning thirty days prior to scheduled angioplasty, patients were randomly assigned to receive either probucol alone, multivitamins alone, the combination of probucol and multivitamins, or placebo. Probucol 500 mg or matched placebo was administered twice daily. The multivitamin complex, consisting of vitamin E 700 IU, vitamin C 500 mg and beta-carotene 30,000 IU, or matched placebo was also administered in one tablet twice daily. All patients received an extra dose of probucol 1000 mg and/or vitamin E 2000 IU and/or matched placebos twelve hours before angioplasty, according to randomization assignment. […] All patients received aspirin 325 mg daily started at least thirty days before procedure and continued for the study period. Balloon angioplasty was performed according to standard techniques. Intracoronary nitroglycerin (0.3 mg) was given for each target artery for both pre- and post-dilatation angiography and at follow-up. The sequence of contrast injections with the exact degree of angulation was recorded and used for every angiogram. Coronary arteriograms (pre-, post-procedure, and final follow-up) were analyzed together using the Coronary Measurement System (CMS), as previously reported. Patient follow-up included clinical evaluation, exercise treadmill testing, blood chemistry, pill count and drug level measurements, and dietary assessment and intervention. Patients were readmitted for follow-up coronary angiography at five to seven months. Patients in whom arteriography was performed for clinical reasons before the fifth month returned for repeat angiographic examination at five to seven months if no definite angiographic restenosis was present on at least one dilated site. During follow-up, patients with recurrence or exacerbation of anginal symptoms were treated with medical therapy or revascularization procedures (reangioplasty or Coronary Bypass Surgery) as clinically indicated. Patients with angiographic restenosis (lesion>50%. at follow-up) without clinical evidence of ischemia were not subjected to further interventional procedures.
Probucol is one of the first pharmacological interventions shown to prevent coronary restenosis after balloon angioplasty. However, its mechanism of action and its efficacy as a vascular remodeling agent has never been studied. […]

Row | Structure (SMILES) | effect on sirolimus drug degradation on coated stent [1] | reduction in lumen loss compared to non-probucol treated patients ([2]; IVUS, patients receiving probucol) [mm^2] | Lumen area, Follow-up Post PTCA (change) ([2]; IVUS, per segment analysis) [mm^2] | reduction in lumen loss compared to the placebo group only ([2]; IVUS, probucol given alone) [mm^2] | Lumen area, Follow-up Post PTCA (change) ([2]; efficacy analysis in compliant patients) [mm^2] | protection against LDL oxidation (lag phase for LDL peroxidation) [3] | patients in whom restenosis still occurred ([4]; probucol alone) | reduction of angiographic lumen loss compared to placebo ([4]; probucol given alone) | reduction of restenosis rate per segment compared to placebo ([4]; probucol given alone) | reduction of the need for repeat angioplasty at 6 month compared to placebo ([4]; probucol given alone)
1 | Cc1cc(C(C)(C)C)c(O)c(C(C)(C)C)c1 [BHT, Butylated Hydroxytoluene] | lessens drug degradation at both 8 weeks and 12 weeks |  |  |  |  |  |  |  |  | 
2 | CC(C)(Sc1cc(C(C)(C)C)c(O)c(C(C)(C)C)c1)Sc1cc(C(C)(C)C)c(O)c(C(C)(C)C)c1 [Probucol Alone, 4,4′-([1-methylethylidene)bis(thio)]bis-[2,6-bis(1,1-dimethylethyl)phenol]] |  | 0.79 | −0.15 ± 1.70 | 1.06 | −0.15 ± 1.70 | significantly greater protection against LDL oxidation than vitamins alone or the combination of probucol and vitamins | over twenty percent | sixty-eight percent | forty-seven percent | fifty-eight percent
